Laboratory results: US4431638A, “Poly-cation salts of bis(or tris)[4-0-monohexose-thio]-arylene sulfate derivatives” (American Cyanamid Company, priority 1982, dated 1984)
Like-named read-outs stand apart in the source and are kept apart here. Blank lines part the entries; values can stand above or below the compound they belong to.

Assays:
[1] = molecular target: activated human C1 (Homo sapiens, UniProt P09871); assay: Test Code 026 (C1 inhibitor); format: biochemical; conditions: serial twofold dilution assay; higher well number indicates higher activity
Description: (§1) Percent inhibition is calculated by comparison with simultaneous controls.
(§2) *Tests identified by code herein. For a discussion of the tests, see
(§3) **Activity in wells, a serial dilution assay; higher well number indicate

[2] = tested on: late components of human complement (C3-C9); assay: Test Code 035 (C3-C9 inhibitor), lysis of EAC 142; format: biochemical; conditions: serial twofold dilution assay; higher well number indicates higher activity
Description: as §1, §2, §3

[3] = tested on: complement activity of sera; assay: Guinea Pig Intraperitoneal Test (GPIP); format: in vivo; conditions: 200 mg/kg i.p.; for inhibition at 200 mg/kg: Cavia porcellus, ip
Description: as §1

[4] = tested on: hereditary angioneurotic edema; conditions: known complement inhibitors, literature reports; cited from earlier work
[5] = tested on: complement system; conditions: Br. J. Exp. Pathol. 33: 327 (1952); cited from earlier work
[6] = tested on: total hemolytic complement activity; conditions: both in vitro and in vivo; cited from earlier work

Compound: O=S(=O)(O)OC[C@H]1O[C@@H](Sc2ccc(NS(=O)(=O)c3cc(S(=O)(=O)Nc4ccc(S[C@@H]5O[C@H](COS(=O)(=O)O)[C@@H](OS(=O)(=O)O)[C@H](OS(=O)(=O)O)[C@H]5OS(=O)(=O)O)cc4)cc(S(=O)(=O)Nc4ccc(S[C@@H]5O[C@H](COS(=O)(=O)O)[C@@H](OS(=O)(=O)O)[C@H](OS(=O)(=O)O)[C@H]5OS(=O)(=O)O)cc4)c3)cc2)[C@H](OS(=O)(=O)O)[C@@H](OS(=O)(=O)O)[C@@H]1OS(=O)(=O)O.[Na].[Na].[Na].[Na].[Na].[Na].[Na].[Na].[Na].[Na].[Na].[Na] [Dodecasodium N,N',N"-tris[4-[(2,3,4,6-tetra-O-sulfo-β-D-glucopyranosyl)thio]phenyl]-1,3,5-benzenetrisulfonamide]
In vitro Activity C-1 026 Wells [1]: 10 Wells
In vitro Activity C-Late 035 Wells [2]: 2 Wells
In vivo Activity (Guinea Pig % Inhibition) Intraperitoneal, 2 hours ([3]; serum complement 2 hours after injection): 93%
In vivo Activity (Guinea Pig % Inhibition) Intraperitoneal, 6 hours ([3]; serum complement 6 hours after injection): 76%
inhibition at 200 mg/kg ([3]; 2 h, serum complement 2 hours after injection, read-out: In vivo Activity (Guinea Pig % Inhibition) Intraperitoneal, 2 hours): 91%
inhibition at 200 mg/kg ([3]; 6 h, serum complement 6 hours after injection, read-out: In vivo Activity (Guinea Pig % Inhibition) Intraperitoneal, 6 hours): 91%
inhibition at 200 mg/kg ([3]; 24 h, serum complement 24 hours after injection, read-out: In vivo Activity (Guinea Pig % Inhibition) Intraperitoneal, 24 hours): 87%

Compound: O=C(Nc1ccc(S[C@@H]2O[C@H](COS(=O)(=O)O)[C@@H](OS(=O)(=O)O)[C@H](OS(=O)(=O)O)[C@H]2OS(=O)(=O)O)cc1)c1ccc(C(=O)Nc2ccc(S[C@@H]3O[C@H](COS(=O)(=O)O)[C@@H](OS(=O)(=O)O)[C@H](OS(=O)(=O)O)[C@H]3OS(=O)(=O)O)cc2)cc1.[Na].[Na].[Na].[Na].[Na].[Na].[Na].[Na] [Octasodium N,N'-bis[4-[(2,3,4,6-tetra-O-sulfo-β-D-glucopyranosyl)thio]phenyl]-1,4-benzenedicarboxamide]
In vitro Activity C-1 026 Wells [1]: 4 Wells
In vitro Activity C-Late 035 Wells [2]: 1 Wells

Compound: O=C(Nc1ccc(S[C@@H]2O[C@H](COS(=O)(=O)O)[C@@H](OS(=O)(=O)O)[C@H](OS(=O)(=O)O)[C@H]2OS(=O)(=O)O)cc1)c1cc(C(=O)Nc2ccc(S[C@@H]3O[C@H](COS(=O)(=O)O)[C@@H](OS(=O)(=O)O)[C@H](OS(=O)(=O)O)[C@H]3OS(=O)(=O)O)cc2)cc(C(=O)Nc2ccc(S[C@@H]3O[C@H](COS(=O)(=O)O)[C@@H](OS(=O)(=O)O)[C@H](OS(=O)(=O)O)[C@H]3OS(=O)(=O)O)cc2)c1.[Na].[Na].[Na].[Na].[Na].[Na].[Na].[Na].[Na].[Na].[Na].[Na] [Dodecasodium N,N',N"-tris[4-[(2,3,4,6-tetra-O-sulfo-β-D-glucopyranosyl)thio]phenyl]-1,3,5-benzenetricarboxamide]
In vitro Activity C-1 026 Wells [1]: 4 Wells
In vitro Activity C-Late 035 Wells [2]: 1 Wells

Compound: NCCCCCC(=O)O [epsilon-aminocaproic acid]
success in the treatment of hereditary angioneurotic edema [4]: used with success

Compound: NC[C@H]1CC[C@H](C(=O)O)CC1 [tranexamic acid]
success in the treatment of hereditary angioneurotic edema [4]: used with success

In vitro Activity C-1 026 Wells [1]: 5 Wells
Compound: O=S(=O)(O)OC[C@H]1O[C@@H](Sc2ccc(NS(=O)(=O)c3ccc4c(S(=O)(=O)Nc5ccc(S[C@@H]6O[C@H](COS(=O)(=O)O)[C@@H](OS(=O)(=O)O)[C@H](OS(=O)(=O)O)[C@H]6OS(=O)(=O)O)cc5)cc(S(=O)(=O)Nc5ccc(S[C@@H]6O[C@H](COS(=O)(=O)O)[C@@H](OS(=O)(=O)O)[C@H](OS(=O)(=O)O)[C@H]6OS(=O)(=O)O)cc5)cc4c3)cc2)[C@H](OS(=O)(=O)O)[C@@H](OS(=O)(=O)O)[C@@H]1OS(=O)(=O)O [Dodecasodium N,N',N"-tris[4-[(2,3,4,6-tetra-O-sulfo-β-D-glucopyranosyl)thio]phenyl]-1,3,6-naphthylenetrisulfonamide]
In vitro Activity C-Late 035 Wells [2]: 1 Wells

Compound: Nc1ccc2cc(S(=O)(=O)[O-])cc(O)c2c1N=Nc1ccc(NC(=O)Nc2ccc(N=Nc3c(N)ccc4cc(S(=O)(=O)[O-])cc(O)c34)c(S(=O)(=O)[O-])c2)cc1S(=O)(=O)[O-].[Na+].[Na+].[Na+].[Na+] [chlorazol fast pink, 3,3'-ureylenebis[6-(2-amino-8-hydroxy-6-sulfo-1-naphthylazo)benzenesulfonic acid], tetrasodium salt]
anticomplementary effect [5]: anticomplementary effect

Compound: pentosan-polysulfoester
anticomplementary activity on human serum, judged by reduction in total hemolytic complement activity [6]: anticomplementary activity

Compound: heparin
anticomplementary effect [5]: anticomplementary effect
